In PubChem BioAssay AID328 (DTP/NCI, 2004) one finds T/C data, which are given here for 15 compounds.

Values joined by “and” are separate entries in the source; they are usually repeats but may differ in a detail not shown here. Identical values can stand only once. Inconclusive results and toxic doses are left out.

For the assay, the system named is BDF1 mice, P388 leukemia ip, median survival T/C. Briefly: NCI In Vivo Anticancer Drug Screen. Data for tumor model P388 Leukemia (intraperitoneal) in B6D2F1 (BDF1) mice. The note with it: endpoint: median survival time, higher = longer survival. Summed up:
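Read-out is survival of treated animals expressed relative to the vehicle group, as a T/C ratio.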

Where [1] appears, read: dose: 400.0 mg/kg/injection, schedule: Q01DX009 (ip), vehicle: Klucel (hydroxypropylcellulose) (HPC).
The mark [2] stands for this setting: dose: 100.0 mg/kg/injection, schedule: Q04DX003 (ip), vehicle: saline with Tween-80.
[3] abbreviates: dose: 200.0 mg/kg/injection, schedule: Q04DX003 (ip), vehicle: saline with Tween-80.
The mark [4] stands for this setting: dose: 400.0 mg/kg/injection, schedule: Q04DX003 (ip), vehicle: saline with Tween-80.
[5] abbreviates: dose: 50.0 mg/kg/injection, schedule: Q01DX009 (ip), vehicle: saline.
[6] abbreviates: dose: 100.0 mg/kg/injection, schedule: Q01DX009 (ip), vehicle: saline.
Setting [7] is: dose: 100.0 mg/kg/injection, schedule: Q04DX003 (ip), vehicle: saline.
The mark [8] stands for this setting: dose: 200.0 mg/kg/injection, schedule: Q04DX003 (ip), vehicle: saline.
Where [9] appears, read: dose: 100.0 mg/kg/injection, schedule: Q01DX009 (ip), vehicle: Klucel (hydroxypropylcellulose) (HPC).
[10] abbreviates: dose: 200.0 mg/kg/injection, schedule: Q01DX009 (ip), vehicle: Klucel (hydroxypropylcellulose) (HPC).
Where [11] appears, read: dose: 200.0 mg/kg/injection, schedule: Q01DX009 (ip), vehicle: saline.
Setting [12] is: dose: 400.0 mg/kg/injection, schedule: Q04DX003 (ip), vehicle: saline.

`OC(CBr)C(O)C(O)C(O)CBr` (centres undefined): the T/C is 105 % of control (dose: 50.0 mg/kg/injection, schedule: Q01DX009 (ip), vehicle: Klucel (hydroxypropylcellulose) (HPC)); 104 % of control (dose: 62.5 mg/kg/injection, schedule: Q01DX010 (ip), vehicle: saline); 120 % of control (dose: 125.0 mg/kg/injection, schedule: Q01DX001 (ip), vehicle: carboxymethylcellulose (CMC)); 105 % of control (dose: 125.0 mg/kg/injection, schedule: Q01DX010 (ip), vehicle: carboxymethylcellulose (CMC)); 108 % of control (dose: 125.0 mg/kg/injection, schedule: Q01DX010 (ip), vehicle: saline); 110 % of control (dose: 250.0 mg/kg/injection, schedule: Q01DX010 (ip), vehicle: carboxymethylcellulose (CMC)). For the same compound, the T/C (dose: 250.0 mg/kg/injection, schedule: Q01DX010 (ip), vehicle: saline) was 91 % of control; the T/C under setting [1] is 87 % of control; the T/C (dose: 1000.0 mg/kg/injection, schedule: Q01DX001 (ip), vehicle: carboxymethylcellulose (CMC)) was 170 % of control.

Consider `CCCCCCc1ccccc1`, for which the T/C by setting is: under setting [2], 109 % of control; under setting [3], 109 % of control; under setting [4], 118 % of control.

With `CCCCCCCNC(C)(C)C(SS)c1ccc(Cl)cc1` (centres undefined), the T/C was 100 % of control (dose: 100.0 mg/kg/injection, schedule: Q04DX003 (sc), vehicle: olive oil, sesame oil, peanut oil); 109 % of control (dose: 200.0 mg/kg/injection, schedule: Q04DX003 (sc), vehicle: olive oil, sesame oil, peanut oil); 100 % of control (dose: 400.0 mg/kg/injection, schedule: Q04DX003 (sc), vehicle: olive oil, sesame oil, peanut oil).

For `CC1CN=C(c2ccc(NC(=O)Nc3ccc(C(=O)Nc4ccc(C5=NCC(C)N5)cc4)cc3)cc2)N1` (centres undefined), the T/C is, setting by setting: (dose: 66.0 mg/kg/injection, schedule: Q04DX003 (ip), vehicle: saline with Tween-80) 168 % of control and 209 % of control; under setting [2], 90 % of control and 222 % of control; (dose: 150.0 mg/kg/injection, schedule: Q04DX003 (ip), vehicle: saline with Tween-80) 100 % of control.

Consider `CC(C)(C)c1ccc(Sc2cccc3c2C(=O)c2c(Cl)cccc2C3=O)cc1`, for which the T/C is 90 % of control under setting [2], 88 % of control under setting [3] and 92 % of control under setting [4].

For `Nc1ccc(CCCCc2ccc(Cl)cc2Cl)cc1`, the T/C is, setting by setting: (dose: 25.0 mg/kg/injection, schedule: Q01DX009 (ip), vehicle: saline) 95 % of control; under setting [5], 95 % of control; under setting [6], 95 % of control; under setting [7], 104 % of control; (dose: 150.0 mg/kg/injection, schedule: Q01DX009 (ip), vehicle: saline) 109 % of control; under setting [8], 100 % of control.

Take `Nc1nc(SN=Nc2ccc(S(N)(=O)=O)cc2)c2[nH]cnc2n1`: the T/C was 120 % of control (dose: 3.75 mg/kg/injection, schedule: Q01DX009 (ip), vehicle: saline with Tween-80); 104 % of control (dose: 7.5 mg/kg/injection, schedule: Q01DX009 (ip), vehicle: saline with Tween-80); 91 % of control (dose: 15.0 mg/kg/injection, schedule: Q01DX009 (ip), vehicle: saline with Tween-80).

As for `O=C1CCCSc2ccccc21`, the T/C runs as follows: under setting [9], 120 % of control; (dose: 100.0 mg/kg/injection, schedule: Q04DX003 (ip), vehicle: Klucel (hydroxypropylcellulose) (HPC)) 100 % of control; under setting [10], 115 % of control; (dose: 200.0 mg/kg/injection, schedule: Q04DX003 (ip), vehicle: Klucel (hydroxypropylcellulose) (HPC)) 100 % of control; under setting [1], 115 % of control; (dose: 400.0 mg/kg/injection, schedule: Q04DX003 (ip), vehicle: Klucel (hydroxypropylcellulose) (HPC)) 100 % of control.

With `COc1cc(-c2nc3ccccc3c(=O)o2)cc(OC)c1OC`, the T/C (dose: 50.0 mg/kg/injection, schedule: Q01DX009 (ip), vehicle: saline with Tween-80) was 105 % of control; the T/C (dose: 100.0 mg/kg/injection, schedule: Q01DX009 (ip), vehicle: saline with Tween-80) was 115 % of control; the T/C under setting [2] was 100 % of control; the T/C (dose: 200.0 mg/kg/injection, schedule: Q01DX009 (ip), vehicle: saline with Tween-80) was 100 % of control; the T/C under setting [3] is 100 % of control.

For the compound `CC(C)(S)C(N)C(=O)O` (centres undefined), the T/C under setting [5] is 86 % of control; the T/C under setting [6] was 90 % of control; the T/C under setting [7] was 91 % of control; the T/C under setting [11] is 90 % of control; the T/C under setting [8] was 91 % of control; the T/C under setting [12] was 100 % of control.

Regarding `CC(C)(CCC(C)(C)NCCC#N)NCCC#N`, the T/C is, setting by setting: under setting [5], 97 % of control and 104 % of control; under setting [6], 101 % of control; under setting [7], 98 % of control; under setting [11], 109 % of control and 119 % of control; under setting [8], 109 % of control; (dose: 400.0 mg/kg/injection, schedule: Q01DX009 (ip), vehicle: saline) 107 % of control. Further, the T/C under setting [12] was 114 % of control.

Take `CC1C(N2CCOCC2)CS1(=O)=O` (centres undefined): the T/C is, setting by setting: under setting [9], 100 % of control; under setting [10], 115 % of control; under setting [1], 105 % of control.

Take `CCCCCC[C@@H](O)C/C=C\CCCCCCCC(=O)OCCO`: the T/C (dose: 50.0 mg/kg/injection, schedule: Q01DX005 (ip), vehicle: saline) was 99 % of control; the T/C (dose: 100.0 mg/kg/injection, schedule: Q01DX005 (ip), vehicle: saline) was 107 % of control; the T/C (dose: 200.0 mg/kg/injection, schedule: Q01DX005 (ip), vehicle: saline) was 93 % of control; the T/C (dose: 400.0 mg/kg/injection, schedule: Q01DX005 (ip), vehicle: saline) is 105 % of control; the T/C (dose: 800.0 mg/kg/injection, schedule: Q01DX005 (ip), vehicle: saline) was 115 % of control; the T/C (dose: 1600.0 mg/kg/injection, schedule: Q01DX005 (ip), vehicle: saline) is 107 % of control.

For the compound `COc1cc2c(cc1OC)-c1c(C)c3ccc(OC)c(NCc4ccccc4)c3c[n+]1CC2`, the T/C by setting is: (dose: 1.56 mg/kg/injection, schedule: Q04DX003 (ip), vehicle: other) 107 % of control; (dose: 3.13 mg/kg/injection, schedule: Q04DX003 (ip), vehicle: other) 100 % of control; (dose: 6.25 mg/kg/injection, schedule: Q04DX003 (ip), vehicle: other) 90 % of control.

In the case of `NC(=S)N/N=C\c1ncnc2ccccc12`, the T/C (dose: 8.0 mg/kg/injection, schedule: Q01DX009 (ip), vehicle: saline with Tween-80) was 150 % of control; the T/C (dose: 12.0 mg/kg/injection, schedule: Q01DX009 (ip), vehicle: saline with Tween-80) was 150 % of control; the T/C (dose: 18.0 mg/kg/injection, schedule: Q01DX009 (ip), vehicle: saline with Tween-80) is 150 % of control.
